Tested on: HeLa cells
Test: mitosis assay with HeLa cell-line stably expressing PCNA3p16-GFP (clone 9.6)
Format: cell-based, human
Settings: 0.1 μg/ml, 13 h time series, 30 min intervals
Procedure: HeLa cell-lines stably expressing PCNA3p16-GFP (clone 9.6; amino acid sequence of SEQ ID NO: 2 fused to GFP) were seeded at 50% confluency in live cell imaging chamber (ibidi μ-Slide 8 well). After incubation over night, normal growth medium (DMEM+10% FCS) was replaced with CO2 adapted live-cell medium (DMEM without phenol red+10% FCS+25 mM Hepes Buffer). Subsequently the imaging slide was placed on an INCell Analyzer 1000 (GE Healthcare) high content microscope equipped with an environmental control chamber, adjusted to 37° C. and 5% CO2. Images were acquired with an 20X/0.45 NA air objective using the appropriate filterset for the fluorescent protein GFP (HQ480—40X/HQ535—50M) and an exposure time of 750 ms. For the live cell imaging 15 fields of view per well were selected and a 13 hour time series started with time intervals of 30 min. After the first time point 0.1 μg/ml Colcemid was added directly to the medium of one well; control cells were left untreated (FIG. 11A). Colcemid is a mitotic inhibitor drug such as Colchicine, which depolymerises microtubules and limits microtubule formation (inactivates spindle fibre formation), thus arresting cells in metaphase.
The acquired data set was analyzed with the automated image evaluation and quantification program INCell workstation. […] The amount of mitotic cells per time point was counted and evaluated.

Structure (SMILES): CN[C@H]1CCc2cc(OC)c(OC)c(OC)c2-c2ccc(OC)c(=O)cc21 [colcemid, Colcemid]
- mitotic cells in treated cell population: increase of mitotic cells
